PMC5454592, “Pharmacological and Toxicological Properties of the Potent Oral γ-Secretase Modulator BPN-15606” (The Journal of Pharmacology and Experimental Therapeutics, 2017)

Key:
[1] = set-up: method as in Soares et al., 2016; Toyn et al., 2016; details: ref Soares et al., 2016, Toyn et al.; cited from earlier work
[2] = tested on: Notch proteolysis by γ-secretase; experiment: Notch assay (Myc-tagged Notch NΔE in H4-APP751 neuroglioma cells); format: cell-based; details: H4-APP751 neuroglioma cells transfected with Myc-tagged Notch (NΔE) construct; Fig. 3
Description: Notch assays were carried out as described previously ([Wagner et al., 2014]).

Row | Structure (SMILES) | hepatic safety in repeated oral dosing studies in humans [1] | Notch proteolysis [2]
1 | CNc1nc(Nc2ccc(-n3cnc(C)n3)c(OC)c2)nc2c1CC[C@H]2c1ccc(F)cc1 [BMS-932481] | transient elevations in plasma concentrations of enzymes associated with hepatic toxicity | –
2 | C[C@H](NC(=O)Cc1cc(F)cc(F)c1)C(=O)N[C@H](C(=O)OC(C)(C)C)c1ccccc1 [N-[N-(3,5-difluorophenacetyl)-L-alanyl]-S-phenylglycine t-butyl ester, reference compound] | – | potently inhibits Notch proteolysis
